Laboratory results published in PMC7059547, “Synthesis and herbicidal activities of aryloxyacetic acid derivatives as HPPD inhibitors” (Beilstein Journal of Organic Chemistry, 2020).
Entries after “also recorded” stand apart in the source; their conditions may differ. Read-outs that look alike come from different tables or passages of the source.

Assays:
[1] = test system: E. crus-galli, S. faberii, D. sanguinalis, A. retroflexus, E. prostrata, A. juncea; assay: Post-emergence greenhouse herbicidal activity; format: in vivo; parameters: Sum of inhibition rate: scale not given here; settings: 150 g ai/ha; for Sum of inhibition rate / herbicidal activity (in words): post-emergence; for Sum of inhibition rate: sum over six weeds (AJ, AR, EP, DS, EC, SF), 18 days after treatment
[2] = molecular target: T1, Arabidopsis thaliana HPPD (AtHPPD) (Arabidopsis thaliana, UniProt P93836); assay: AtHPPD enzyme inhibition study; format: biochemical
T1 construct: made in house
T1 sequence (P93836 1-445): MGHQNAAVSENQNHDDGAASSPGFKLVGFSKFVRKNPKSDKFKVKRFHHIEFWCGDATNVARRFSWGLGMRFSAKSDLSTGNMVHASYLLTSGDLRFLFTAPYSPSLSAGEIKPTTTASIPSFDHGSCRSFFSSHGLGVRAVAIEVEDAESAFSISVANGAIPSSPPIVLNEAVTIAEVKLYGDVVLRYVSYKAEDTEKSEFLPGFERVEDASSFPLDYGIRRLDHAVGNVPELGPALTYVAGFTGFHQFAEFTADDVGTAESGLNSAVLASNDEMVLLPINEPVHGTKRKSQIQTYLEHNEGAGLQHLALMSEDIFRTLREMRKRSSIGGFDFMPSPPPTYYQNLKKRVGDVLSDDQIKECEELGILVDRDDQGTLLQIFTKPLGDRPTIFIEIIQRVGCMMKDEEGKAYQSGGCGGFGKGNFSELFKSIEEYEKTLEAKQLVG
Experimental: AtHPPD was prepared and puriﬁed according to the reported methods in the literature [19–2035–37].

maize = assay: Postemergence crop safety, maize; format: in vivo; settings: 150 g ai/ha; for % injury maize: postemergence, four-leaf stage, after 15 days
Experimental: (§1) The representative crops, rice, wheat, maize, cotton, soybean, and canola were selected to test the crop safety of compound II3, II4, and II5. The six crops were separately planted in ﬂowerpots (12 cm diameter) containing the composite nutrient soil and grown at room temperature. When the crops had reached the four-leaf stage, the safety experiments were conducted at the rate of 150 g ai/ha. After 15 days, the ﬁnal results of crop safety were evaluated with two duplicates per experiment (Table 3).

canola = assay: Postemergence crop safety, canola; format: in vivo; settings: 150 g ai/ha, four-leaf stage, after 15 days
Experimental: as §1

cotton = assay: Postemergence crop safety, cotton; format: in vivo; settings: 150 g ai/ha, four-leaf stage, after 15 days
Experimental: as §1

rice = assay: Postemergence crop safety, rice; format: in vivo; settings: 150 g ai/ha, four-leaf stage, after 15 days
Experimental: as §1

soybean = assay: Postemergence crop safety, soybean; format: in vivo; settings: 150 g ai/ha, four-leaf stage, after 15 days
Experimental: as §1

wheat = assay: Postemergence crop safety, wheat; format: in vivo; settings: 150 g ai/ha; for % injury wheat: postemergence, four-leaf stage, after 15 days
Experimental: as §1

Row | SMILES | Sum of inhibition rate [1] | Ki ([2]; read-out: AtHPPD inhibition Ki) [nM] | other results
1 | Cn1nc(C2CC2)c(C(=O)COc2ccccc2)c1O [I1] | 60 | 1500 ± 31 | 
2 | Cn1nc(C(F)(F)F)c(C(=O)COc2ccccc2)c1O [I2] | 40 | 1300 ± 17 | 
3 | Cn1nc(C2CC2)c(C(=O)COc2ccccc2Cl)c1O [I3] | 80 | 360 ± 12 | 
4 | Cn1nc(C(F)(F)F)c(C(=O)COc2ccccc2Cl)c1O [I4] | 40 | 590 ± 43 | 
5 | CC1(C)CC(=O)C(C(=O)COc2ccc(Cl)cc2)=C(O)C1 [I5] | 110 | 1000 ± 36 | 
6 | Cn1nc(C(F)(F)F)c(C(=O)COc2ccc(Cl)cc2)c1O [I6] | 180 | 930 ± 32 | 
7 | Cn1nc(C2CC2)c(C(=O)COc2ccc(Cl)cc2Cl)c1O [I7] | 210 | 360 ± 12 | 
8 | Cn1nc(C(F)(F)F)c(C(=O)COc2ccc(Cl)cc2Cl)c1O [I8] | 170 | 220 ± 23 | 
9 | CC1(C)CC(=O)C(C(=O)COc2c(Cl)cc(Cl)cc2Cl)=C(O)C1 [I9] | 70 | 310 ± 48 | 
10 | Cc1nn(C)c(O)c1C(=O)COc1c(Cl)cc(Cl)cc1Cl [I10] | 60 | 240 ± 3 | 
11 | Cn1nc(C2CC2)c(C(=O)COc2c(Cl)cc(Cl)cc2Cl)c1O [I11] | 335 | 81 ± 1 | 
12 | Cn1nc(C(F)(F)F)c(C(=O)COc2c(Cl)cc(Cl)cc2Cl)c1O [I12] | 335 |  | herbicidal activity (in words) [1]: poorer than expected herbicidal activity
13 | CC1(C)CC(=O)C(C(=O)COc2ccccc2[N+](=O)[O-])=C(O)C1 [I13] | 30 | 450 ± 33 | 
14 | Cc1nn(C)c(O)c1C(=O)COc1ccccc1[N+](=O)[O-] [I14] | 40 | 210 ± 42 | 
15 | Cn1nc(C2CC2)c(C(=O)COc2ccccc2[N+](=O)[O-])c1O [I15] | 40 | 270 ± 4 | 
16 | Cn1nc(C(F)(F)F)c(C(=O)COc2ccccc2[N+](=O)[O-])c1O [I16] | 10 | 440 ± 13 | 
17 | O=C1CCCC(O)=C1C(=O)COc1ccc([N+](=O)[O-])cc1 [I17] | 80 | 230 ± 4 | 
18 | CC1(C)CC(=O)C(C(=O)COc2ccc([N+](=O)[O-])cc2)=C(O)C1 [I18] | 70 | 930 ± 6 | 
19 | Cc1nn(C)c(O)c1C(=O)COc1ccc([N+](=O)[O-])cc1 [I19] | 100 | 630 ± 2 | 
20 | Cn1nc(C2CC2)c(C(=O)COc2ccc([N+](=O)[O-])cc2)c1O [I20] | 60 | 500 ± 3 | 
21 | Cn1nc(C(F)(F)F)c(C(=O)COc2ccc([N+](=O)[O-])cc2)c1O [I21] | 100 | 1500 ± 41 | 
22 | CC1(C)CC(=O)C(C(=O)COc2ccc([N+](=O)[O-])cc2Cl)=C(O)C1 [I22] | 70 | 1020 ± 9 | 

Row | SMILES | Sum of inhibition rate [1] | Ki ([2]; read-out: AtHPPD inhibition Ki) [nM] | other results
23 | Cc1nn(C)c(O)c1C(=O)COc1ccc([N+](=O)[O-])cc1Cl [I23] | 80 | 12 ± 9 | 
24 | Cn1nc(C2CC2)c(C(=O)COc2ccc([N+](=O)[O-])cc2Cl)c1O [I24] | 110 | 260 ± 12 | 
25 | Cn1nc(C(F)(F)F)c(C(=O)COc2ccc([N+](=O)[O-])cc2Cl)c1O [I25] | 100 | 210 ± 43 | 
26 | O=C1CCCC(O)=C1C(=O)COc1cc(Cl)ccc1Oc1ccc(Cl)cc1Cl [I26] | 30 | 1900 ± 1 | 
27 | Cc1ccc(OCC(=O)C2=C(O)CCCC2=O)c(C)c1 [I30] | 40 | 2200 ± 34 | 
28 | Cc1ccc(OCC(=O)C2=C(O)CC(C)(C)CC2=O)c(C)c1 [I31] | 20 | 3100 ± 340 | 
29 | Cc1ccc(OCC(=O)c2c(C)nn(C)c2O)c(C)c1 [I32] | 30 | 2000 ± 9 | 
30 | Cc1ccc(OCC(=O)c2c(C3CC3)nn(C)c2O)c(C)c1 [I33] | 30 | 2800 ± 45 | 
31 | Cc1ccc(OCC(=O)c2c(C(F)(F)F)nn(C)c2O)c(C)c1 [I34] | 30 | 2800 ± 670 | 
32 | COc1cc(C)ccc1OCC(=O)C1=C(O)CCCC1=O [I35] | 40 |  | Ki [2]: 3300 ± 140 nM
33 | COc1cc(C)ccc1OCC(=O)C1=C(O)CC(C)(C)CC1=O [I36] | 20 |  | Ki [2]: 3400 ± 210 nM
34 | COc1cc(C)ccc1OCC(=O)c1c(C)nn(C)c1O [I37] | 40 |  | Ki [2]: 2700 ± 530 nM
35 | COc1cc(C)ccc1OCC(=O)c1c(C2CC2)nn(C)c1O [I38] | 50 |  | Ki [2]: 2900 ± 38 nM
36 | O=C1CCCC(O)=C1C(=O)COc1ccccc1 [I39] | 40 | 1300 ± 56 | 
37 | Cc1nn(C)c(O)c1C(=O)COc1ccccc1 [I40] | 50 | 1200 ± 31 | 
38 | O=C1CCCC(O)=C1C(=O)COc1nc(Cl)c(Cl)cc1Cl [II1] | 50 | 93 ± 7 | 
39 | CC1(C)CC(=O)C(C(=O)COc2nc(Cl)c(Cl)cc2Cl)=C(O)C1 [II2] | 20 | 97 ± 10 | 
40 | Cc1nn(C)c(O)c1C(=O)COc1nc(Cl)c(Cl)cc1Cl [II3] | 415 | 21 ± 4 | crop tolerance / safety of maize (in words) (maize): high tolerance; % injury maize (maize): 10%; % injury canola (canola): 90%; % injury cotton (cotton): 60%; % injury rice (rice): 40%; herbicidal activity (in words) [1]: broad-spectrum herbicidal activities; also recorded: excellent herbicidal activities; % injury soybean (soybean): 50%; crop tolerance of wheat (in words) (wheat): high tolerance; % injury wheat (wheat): 10%
41 | Cn1nc(C2CC2)c(C(=O)COc2nc(Cl)c(Cl)cc2Cl)c1O [II4] | 520 |  | crop tolerance / safety of maize (in words) (maize): safe for weed control in maize fields; also recorded: tolerance; also recorded: safe for use on maize; % injury maize (maize): 10%; % injury canola (canola): 100%; % injury cotton (cotton): 60%; % injury rice (rice): 30%; herbicidal activity (in words) [1]: broad-spectrum herbicidal activities; also recorded: slightly higher herbicidal activity than mesotrione; also recorded: excellent herbicidal activities; herbicidal activity for pre-emergence treatment (in words) ([1]; pre-emergence treatment as printed in the abstract): slightly better than that of mesotrione; Ki [2]: 23 ± 6 nM; % injury soybean (soybean): 30%; % injury wheat (wheat): 50%
42 | Cn1nc(C(F)(F)F)c(C(=O)COc2ccc3ccccc3c2Br)c1O [III4] | 90 | 2000 ± 12 | 
43 | O=C1CCCC(O)=C1C(=O)COc1cccnc1[N+](=O)[O-] [III5] | 50 | 230 ± 11 | 
44 | Cn1nc(C2CC2)c(C(=O)COc2cccnc2[N+](=O)[O-])c1O [III6] | 60 | 210 ± 42 | 
